Molecular target: T1, REV-ERBα LBD (human; residues 281-614 Δ324-422) (Homo sapiens, UniProt P20393, DEL324-422)
T1 construct: 6×Histag-REV-ERBα LBD (human; residues 281-614 Δ324-422); made in house; host or cells: Escherichia coli
Experiment: TR-FRET corepressor interaction assay (REV-ERBα LBD, FITC-SMRT peptide)
Format: biochemical
Conditions: FITC-SMRT peptide, read-out: REVERBα agonism (EC50 class, FRET assay)
Summary of the method: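 Compound serial dilutions (in DMSO, triplicate) incubated 2 h at 4 °C; Tb donor excited at 340 nm, emission read at 495 nm and FITC acceptor at 520 nm. TR-FRET ratio (520/495 nm) plotted against ligand concentration and fitted to a sigmoidal dose-response curve.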

T1 sequence (P20393 with tags, fused parts or gaps DEL324-422): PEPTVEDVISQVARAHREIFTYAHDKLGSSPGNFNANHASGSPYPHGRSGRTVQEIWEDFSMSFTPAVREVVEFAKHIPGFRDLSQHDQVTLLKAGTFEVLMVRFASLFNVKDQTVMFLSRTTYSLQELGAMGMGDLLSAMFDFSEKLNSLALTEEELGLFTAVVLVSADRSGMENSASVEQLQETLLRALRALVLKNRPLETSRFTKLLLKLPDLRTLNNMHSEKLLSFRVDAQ
T1 sequence (Q9Y618 2335-2356 partner limits assumed): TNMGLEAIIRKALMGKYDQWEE

SMILES	EC50 [nM]
CC(C)(CO)Cn1cc([C@H](NS(=O)(=O)C2CC2)C(F)(F)F)c2cc(F)c(-c3ccccc3C(F)(F)F)cc21 [Example 490, N-[(1S)-2,2,2-trifluoro-1-[5-fluoro-1-(3-hydroxy-2,2-dimethyl-propyl)-6-[2-(trifluoromethyl)phenyl]indol-3-yl]ethyl]cyclopropanesulfonamide]	500 to 3000
CC(C)(C)Cn1cc([C@H](NS(=O)(=O)C2CC2)C(F)(F)F)c2ccc(-c3ccccc3C(F)(F)F)nc21 [Example 491, N-[(1S)-1-[1-(2,2-dimethylpropyl)-6-[2-(trifluoromethyl)phenyl]pyrrolo[2,3-b]pyridin-3-yl]-2,2,2-trifluoro-ethyl]cyclopropanesulfonamide]	< 500
CC(C)(C)Cn1cc([C@H](NS(=O)(=O)C2CCC2)C(F)(F)F)c2ccc(-c3ccccc3C(F)(F)F)nc21 [Example 492, N-[(1S)-1-[1-(2,2-dimethylpropyl)-6-[2-(trifluoromethyl)phenyl]pyrrolo[2,3-b]pyridin-3-yl]-2,2,2-trifluoro-ethyl]cyclobutanesulfonamide]	< 500
CC(C)(C)Cn1cc([C@H](NS(=O)(=O)C2CCC2)C(F)(F)F)c2ccc(-c3ccccc3C(F)(F)F)cc21 [Example 494, (S)—N-(2,2,2-trifluoro-1-(1-neopentyl-6-(2-(trifluoromethyl)phenyl)-1H-indol-3-yl)ethyl)cyclobutanesulfonamide]	< 500
CC(C)(C)Cn1cc([C@H](NS(=O)(=O)C2CCC2)C(F)(F)F)c2ccc(-c3ccccc3C#N)cc21 [Example 495, (S)—N-(1-(6-(2-cyanophenyl)-1-neopentyl-1H-indol-3-yl)-2,2,2-trifluoroethyl)cyclobutanesulfonamide]	< 500
CC(C)(C)Cn1cc([C@H](NS(=O)(=O)C2CCC2)C(F)(F)F)c2ccc(-c3c(F)cccc3C(F)(F)F)cc21 [Example 496, (S)—N-(2,2,2-trifluoro-1-(6-(2-fluoro-6-(trifluoromethyl)phenyl)-1-neopentyl-1H-indol-3-yl)ethyl)cyclobutanesulfonamide]	< 500

The next lines start with the values.

EC50 [nM]	SMILES
< 500	CC(C)(C)Cn1cc([C@H](NS(=O)(=O)C2CCC2)C(F)(F)F)c2ccc(-c3ccc(F)cc3C(F)(F)F)cc21 [Example 497, (S)—N-(2,2,2-trifluoro-1-(6-(4-fluoro-2-(trifluoromethyl)phenyl)-1-neopentyl-1H-indol-3-yl)ethyl)cyclobutanesulfonamide]
500 to 3000	CC(C)Cn1cc(C(CS(=O)(=O)C2CC2)C(F)(F)F)c2ccc(-c3ccccc3C(F)(F)F)cc21 (stereo not drawn) [Example 498, 3-(3-(cyclopropylsulfonyl)-1,1,1-trifluoropropan-2-yl)-1-isobutyl-6-(2-(trifluoromethyl)phenyl)-1H-indole]
< 500	CC(C)Cn1cc([C@H](NS(=O)(=O)C2CCC2)C(F)(F)F)c2ccc(-c3ccccc3C(F)(F)F)cc21 [Example 499, (S)—N-(2,2,2-trifluoro-1-(1-isobutyl-6-(2-(trifluoromethyl)phenyl)-1H-indol-3-yl)ethyl)cyclobutanesulfonamide]
< 500	Cc1ccc2c([C@H](NS(=O)(=O)C3CCC3)C(F)(F)F)cn(CC(C)(C)C)c2c1 [Example 500, (S)—N-(2,2,2-trifluoro-1-(6-methyl-1-neopentyl-1H-indol-3-yl)ethyl)cyclobutanesulfonamide]
< 500	CC(C)(C)Cn1cc([C@H](NS(=O)(=O)C2CCC2)C(F)(F)F)c2ccc(C3CC3)cc21 [Example 501, (S)—N-(1-(6-cyclopropyl-1-neopentyl-1H-indol-3-yl)-2,2,2-trifluoroethyl)cyclobutanesulfonamide]
< 500	CCS(=O)(=O)NCCn1cc(CC(C)(C)C)c2cc(-c3ccc(C(F)(F)F)cc3C(F)(F)F)ccc21 [Example 502, N-(2-(5-(2,4-bis(trifluoromethyl)phenyl)-3-neopentyl-1H-indol-1-yl)ethyl)ethanesulfonamide]

From patent US20230339886A1 (University of Florida Research Foundation, Incorporated, priority 2020, published 2023)
